The nature of series [1]: Lipophilicity, log P of the compound. In kind it is physicochemical. To be noted: octanol/water.
Series [2] can be described thus: Lipophilicity, log P at pH 7.4. In kind it is physicochemical. Particulars: buffer.
The nature of series [3]: Dissociation constant, pKa of the compound. In kind it is physicochemical.
Series [4] concerns the target D(3) dopamine receptor (Homo sapiens, UniProt P35462).
Description: Displacement of [3H]spiroperidol from human cloned dopamine D3 receptor by liquid scintillation counting
For series [5], the target named is D(2) dopamine receptor (Homo sapiens, UniProt P14416).
Chain of D(2) dopamine receptor (P14416 whole entry): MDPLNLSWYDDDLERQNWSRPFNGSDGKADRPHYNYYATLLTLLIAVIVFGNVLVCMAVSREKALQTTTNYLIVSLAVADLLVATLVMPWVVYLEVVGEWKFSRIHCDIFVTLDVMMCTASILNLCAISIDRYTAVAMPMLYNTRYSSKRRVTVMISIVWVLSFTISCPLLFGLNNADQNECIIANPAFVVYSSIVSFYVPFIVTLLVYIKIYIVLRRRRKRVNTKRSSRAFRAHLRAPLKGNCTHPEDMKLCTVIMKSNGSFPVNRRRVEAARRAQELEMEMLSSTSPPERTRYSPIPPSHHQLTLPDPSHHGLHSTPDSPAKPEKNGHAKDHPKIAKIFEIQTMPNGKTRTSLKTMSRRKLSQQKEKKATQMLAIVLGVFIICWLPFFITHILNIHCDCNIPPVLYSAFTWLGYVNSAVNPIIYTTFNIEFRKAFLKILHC
Description: Displacement of [3H]spiroperidol from human cloned dopamine D2L receptor by liquid scintillation counting

Structures are written as SMILES.

Chain of D(3) dopamine receptor (P35462 whole entry): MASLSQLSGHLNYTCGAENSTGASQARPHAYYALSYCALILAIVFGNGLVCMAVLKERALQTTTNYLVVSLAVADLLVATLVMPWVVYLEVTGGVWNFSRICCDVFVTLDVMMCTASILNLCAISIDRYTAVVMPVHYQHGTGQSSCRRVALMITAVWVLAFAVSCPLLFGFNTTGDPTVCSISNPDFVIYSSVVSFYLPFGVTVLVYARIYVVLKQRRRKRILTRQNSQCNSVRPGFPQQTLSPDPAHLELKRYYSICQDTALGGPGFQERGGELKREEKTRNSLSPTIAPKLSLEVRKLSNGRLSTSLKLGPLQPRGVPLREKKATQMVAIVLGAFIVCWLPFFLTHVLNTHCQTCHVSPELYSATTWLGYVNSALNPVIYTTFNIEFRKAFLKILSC

`COc1ccccc1N1CCN(CCCCNC(=O)c2ccc(-n3ccnc3)cc2)CC1` came in with a log partition coefficient (logP) in series [1] of 3.1. For the same compound, in series [2], the log distribution coefficient (logD) stood at 2.39. For the same compound, the pKa in series [3] came to 8.05. The Ki in series [4] stood at 4.23 nM; in series [5] it was 51.7 nM.
Compound `CCCN(CCC)C1CCc2cc(CS(=O)(=O)c3ccc(OC)cc3)ccc2C1` (configuration not stated) came in with a Ki in series [4] of 1.3 nM. This counts as single-digit nanomolar.
In turn, `COc1ccccc1N1CCN(CCCCNC(=O)c2ccc3nonc3c2)CC1` returned a lipophilicity (logP) in series [1] of 2.79. The same compound had a logD in series [2] of 2.26. In series [3], this compound yielded a pKa of 7.78. For the same compound, the Ki in series [4] worked out at 4.7 nM; in series [5], 31 nM.
In turn, `COc1ccc(N2CCN(CCCCNC(=O)c3ccc4nonc4c3)CC2)cc1` displayed a log partition coefficient (logP) in series [1] of 2.77. In series [2], this compound yielded a log distribution coefficient (logD) of 2.41. In series [3], this compound gave a pKa of 7.51. Also, the Ki in series [4] is 6220 nM; in series [5], above 1000 nM.
The like results for `COc1ccccc1N1CCN(CCCNC(=O)c2ccc3nonc3c2)CC1` were, in that order, 2.66, 2.34, 7.43, above 1000 nM and 89.4 nM.
On the same counts, the results for `O=C(NCCCCN1CCN(c2ccccc2OCCF)CC1)c1ccc(-n2ccnc2)cc1` are 2.9, 2.4, 7.74, 2.95 nM and 5.92 nM.
Take `COc1ccc(N2CCN(CCCCNC(=O)c3ccc(-n4ccnc4)cc3)CC2)cc1`: the logP in series [1] worked out at 2.8. For the same compound, the logD in series [2] was found to be 2.37. For the same compound, the pKa in series [3] came out at 7.64. Further, the Ki was 211 nM in series [4] and above 1000 nM in series [5].
The like results for `COc1cc(F)cc(N2CCN(CCCCNC(=O)c3ccc4nonc4c3)CC2)c1` were, in that order, 3.34, 3.12, 7.34, 658 nM and 1340 nM.
In series [1], `COc1cccc(N2CCN(CCCCNC(=O)c3ccc4nonc4c3)CC2)c1` had a logP of 2.8. In series [2], this compound returned a logD of 2.48. In series [3], this compound showed a pKa of 7.44. In addition, the inhibition constant (Ki) in series [4] is 170 nM; in series [5] it was above 100 nM.
The like results for `O=C(NCCCCN1CCN(c2cccc(OCCF)c2)CC1)c1ccc(-n2ccnc2)cc1` were, in that order, 2.9, 2.51, 7.56, 47.2 nM and 196 nM.
On the same counts, the results for `O=C(NCCCCN1CCN(c2cccc(OCCF)c2)CC1)c1ccc2nonc2c1` are 2.87, 2.53, 7.47, 226 nM and above 1000 nM.
Compound `COc1ccccc1N1CCN(CCCCOc2ccc(C3CN4C=CSC4=N3)cc2)CC1` (configuration not stated) showed a Ki in series [4] of 0.12 nM.
Compound `COc1ccccc1N1CCN(CCCNC(=O)c2ccc(-n3ccnc3)cc2)CC1` showed a logP in series [1] of 2.59. The logD in series [2] is 2.22. Besides, the pKa in series [3] is 7.53. Besides, the Ki in series [4] is 95.3 nM; in series [5], 121 nM.
For `COc1cccc(N2CCN(CCCCNC(=O)c3ccc(-n4ccnc4)cc3)CC2)c1`, the lipophilicity (logP) in series [1] worked out at 2.93. Further, the logD in series [2] amounted to 2.51. The compound also returned a pKa in series [3] of 7.59. For the same compound, the Ki is 19.9 nM in series [4] and 243 nM in series [5].
Compound `COc1cc(F)cc(N2CCN(CCCCNC(=O)c3ccc(-n4ccnc4)cc3)CC2)c1` displayed a lipophilicity (logP) in series [1] of 3.16. This compound had a logD in series [2] of 2.8. In series [3], this compound returned a pKa of 7.52. Also, the inhibition constant Ki in series [4] is 29.2 nM; in series [5], 133 nM.
On the same counts, the results for `O=C(NCCCCN1CCN(c2ccccc2OCCF)CC1)c1ccc2nonc2c1` are 2.79, 2.26, 7.78, 22.1 nM and 17.8 nM.

The term logP denotes the decadic logarithm of the partition coefficient of the neutral form, usually between octanol and water. A low value points to a more hydrophilic compound. Broadly, the logD is lipophilicity at a set pH, counting ionised and neutral species. Usually pKa stands for the pH at which an ionisable group is half protonated. Lower therefore signals a stronger acid or weaker base. Broadly, the Ki is the equilibrium dissociation constant of an inhibitor or competing ligand from its target. High values mean a looser hold on the target, low ones a stronger hold on the target.

The values above are taken from ChEMBL document CHEMBL1140855, “Design, synthesis, and binding affinities of potential positron emission tomography (PET) ligands with optimal lipophilicity for brain imaging of the dopamine D3 receptor. Part II” (Bioorg Med Chem, 2009).
